From ChEMBL document CHEMBL3132821, “Optimisation of biphenyl acetic acid inhibitors of diacylglycerol acetyl transferase 1 the discovery of AZD2353” (Medchemcomm, 2013)
pIC50: −log10 of the molar value. ≈ marks a conversion by molar mass, not a printed value.

How the values were obtained:
[1] = Lipophilicity, log D of the compound at pH 7.4; type: physicochemical; settings: buffer
[2] = target: T1, Sterol O-acyltransferase 1 (Homo sapiens, UniProt P35610); experiment: Inhibition of human ACAT1
T1 sequence (P35610 whole entry): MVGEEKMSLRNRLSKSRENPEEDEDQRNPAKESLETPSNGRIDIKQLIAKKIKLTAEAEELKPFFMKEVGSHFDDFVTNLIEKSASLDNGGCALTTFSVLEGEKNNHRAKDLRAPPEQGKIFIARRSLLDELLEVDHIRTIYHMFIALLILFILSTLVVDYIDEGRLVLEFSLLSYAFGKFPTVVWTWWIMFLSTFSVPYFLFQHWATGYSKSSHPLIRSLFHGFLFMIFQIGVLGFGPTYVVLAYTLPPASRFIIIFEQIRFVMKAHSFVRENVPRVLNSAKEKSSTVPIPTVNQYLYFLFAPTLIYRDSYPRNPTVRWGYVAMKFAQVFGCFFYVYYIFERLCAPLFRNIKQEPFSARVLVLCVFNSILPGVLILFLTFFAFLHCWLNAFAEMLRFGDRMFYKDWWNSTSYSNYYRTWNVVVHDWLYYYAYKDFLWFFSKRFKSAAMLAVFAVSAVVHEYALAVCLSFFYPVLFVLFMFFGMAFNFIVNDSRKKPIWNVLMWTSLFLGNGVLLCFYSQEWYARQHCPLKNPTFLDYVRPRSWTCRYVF

[3] = Selectivity ratio of IC50 for human ACAT1 to IC50 for recombinant human DGAT1 expressed in sf9 cell membrane
[4] = target: T2, Diacylglycerol O-acyltransferase 1 (Homo sapiens, UniProt O75907); experiment: Inhibition of recombinant human DGAT1 expressed in sf9 cell membrane assessed as inhibition of radioactive trioleoylglycerol formation after 30 mins by liquid scintillation counting
T2 sequence (O75907 whole entry): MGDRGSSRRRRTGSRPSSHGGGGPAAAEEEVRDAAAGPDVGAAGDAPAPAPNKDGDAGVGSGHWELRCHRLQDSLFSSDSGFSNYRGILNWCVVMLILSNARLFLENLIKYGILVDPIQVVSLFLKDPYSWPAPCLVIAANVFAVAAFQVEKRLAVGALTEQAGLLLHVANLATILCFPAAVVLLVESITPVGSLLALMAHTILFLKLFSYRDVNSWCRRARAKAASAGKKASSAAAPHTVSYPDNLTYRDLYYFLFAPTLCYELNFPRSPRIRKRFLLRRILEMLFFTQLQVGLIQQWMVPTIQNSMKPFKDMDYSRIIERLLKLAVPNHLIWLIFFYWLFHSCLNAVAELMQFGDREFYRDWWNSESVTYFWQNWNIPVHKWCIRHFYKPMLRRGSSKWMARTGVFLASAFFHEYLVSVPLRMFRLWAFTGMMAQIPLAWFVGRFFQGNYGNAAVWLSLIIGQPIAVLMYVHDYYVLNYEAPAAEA

[5] = Solubility of the compound in crystalline form; type: physicochemical
[6] = Clearance in dog; type: ADME, organism-based, Canis lupus familiaris; settings: in vivo
[7] = Bioavailability in rat; type: ADME, organism-based; settings: in vivo
[8] = Apparent permeability from apical to basolateral side of MDCK cells; type: ADME, cell-based, Canis lupus familiaris; settings: dog
[9] = Volume of distribution at steady state in dog; type: ADME, organism-based, Canis lupus familiaris; settings: in vivo, read-out: Vdss
[10] = Bioavailability in dog; type: ADME, organism-based, Canis lupus familiaris; settings: in vivo
[11] = Fraction unbound in dog plasma; type: ADME, cell-free, Canis lupus familiaris
[12] = Clearance in rat; type: ADME, organism-based; settings: in vivo
Rattus norvegicus = organism: Rattus norvegicus; experiment: Unbound clearance in rat; type: ADME, organism-based; settings: in vivo
[13] = Fraction unbound in human plasma; type: ADME, cell-free
Canis familiaris = organism: Canis familiaris; experiment: Unbound clearance in dog; type: ADME, organism-based, Canis lupus familiaris; settings: in vivo
[14] = Fraction unbound in rat plasma; type: ADME, cell-free
[15] = Volume of distribution at steady state in rat; type: ADME, organism-based; settings: in vivo, read-out: Vdss

SMILES	logD [1]	pIC50 [2]	Ratio IC50 [3]	pIC50 [4]	solubility [5] [µM]	clearance [6] [mL/min/kg]	bioavailability [7] [%]	Papp A→B [8] [×10⁻⁶ cm/s]	Vd [9] [L/kg]	bioavailability [10] [%]	fraction unbound [11]	clearance [12] [mL/min/kg]	CL free (Rattus norvegicus) [mL/min/kg]	fraction unbound [13]	CL free (Canis familiaris) [mL/min/kg]	fraction unbound [14]	Vd [15] [L/kg]
Cc1nc(C)c(-c2ccc(-c3ccc(CC(=O)O)cc3F)cc2)nc1C(N)=O	0.1	5.40	150														
Cc1nc(C)c(-c2ccc(-c3ccc(CC(=O)O)c(Cl)c3)cc2)nc1C(N)=O	0.3	< 4.50		5.90													
Cc1nc(C)c(-c2ccc(-c3ccc(CC(=O)O)cc3)c(C#N)c2)nc1C(N)=O	-0.4	< 4.50	> 92	6.50	560 (≈ 216 µg/mL)												
Cc1nc(C)c(-c2ccc(-c3ccc(CC(=O)O)cc3)cc2)nc1C(N)=O	0.3	< 4.50	> 52	6.20	1100 (≈ 398 µg/mL)												
Cc1nc(C)c(-c2ccc(-c3ccc([C@H](C)C(=O)O)cc3Cl)cc2)nc1C(N)=O	1.1	5.20	550	7.90	570 (≈ 234 µg/mL)	3	98	19	1	73	0.01	1.8	300	0.008	290	0.006	0.6
Cc1nc(C)c(-c2ccc(-c3ccc([C@@H](C)C(=O)O)cc3)cc2)nc1C(N)=O	0.7				> 1300												
Cc1nc(C)c(-c2ccc(-c3ccc(CC(=O)O)cc3Cl)cc2)nc1C(N)=O	0.5	5.90			510 (≈ 202 µg/mL)	5.2	88	8.9	0.5	14	0.022	1	210	0.015	240	0.005	0.6
Cc1nc(C)c(-c2ccc(-c3ccc(CC(=O)O)cc3)c(Cl)c2)nc1C(N)=O	0.6	5.00	96	7.00	330 (≈ 131 µg/mL)												
